Assay [1] has as its system c-MPL. As to the kind of experiment: Cell surface c-MPL levels in MkPs by flow cytometry. It counts as cell-based, mouse. Particulars: TPO 30 ng/ml. On the technique in general: A flow cytometer gives signals particle by particle.
Description: Detection of c-MPL from in vivo and in vitro experiments was performed as follows. After harvesting BM progenitor cells, RBCs were lysed and the cells were then resuspended in FACS buffer. Cells were then stained with a cocktail of lineage markers to allow negative selection of BM progenitor cells (Sca1, CD127, CD45R, CD19, CD11b, CD3e, TER-119, CD2, CD8, CD4, and Ly-6C/G; all FITC; eBioscience) and progenitor cell markers, ckit, CD16/CD32 (FcγRII/III), CD34, CD41 and c-MPL or isotype control and allowed to stain on ice for 30 mins. Cells were then washed and stained with a fluorescently conjugated secondary anti-rabbit antibody to detect the anti-c-MPL for a further 30 mins on ice. After this the cells were washed, resuspended in FACS buffer and run on the LSRII. MEPs were identified as lin^− ckit^+CD16/CD32^loCD34^loCD41^−, while MkPs were identified as lin^−ckit^+CD16/CD32^loCD34^loCD41^+.
Assay [2] concerns c-CBL. As to the kind of experiment: c-Cbl tyrosine phosphorylation in MkPs in response to TPO, flow cytometry. It counts as cell-based, mouse. As for the experimental part: BM progenitor cells were stimulated with TPO at the indicated concentration for the specified period of time at 37° C. and then immediately diluted with ice-cold buffer and placed on ice to prevent further changes in phosphorylation. Cells were then centrifuged and the pellet resuspended in BD fix buffer (BD Biosciences) for 10 mins on ice. The cells were washed with BD flow cytometry staining buffer, centrifuged and then resuspended in BD cytofix/perm buffer III for 20 mins. After this the cells were washed and resuspended in BD staining buffer and incubated with lineage (Sca1, CD127, CD45R, CD19, CD11b, CD3e, TER-119, CD2, CD8, CD4, and Ly-6G; all FITC; eBioscience) and progenitor cell markers, ckit, CD16/CD32 (FcγRII/III), CD34, CD41 and anti-phospho-c-Cbl ([…]/[…]; BD biosciences) or an isotype control for 30 mins on ice. The cells were then washed, resuspended in FACS buffer and run on an LSRII. Phosphorylated c-Cbl was normalized against isotype control staining.

In assay [3] the test system is LacZ-positive splenic cells. Briefly: LacZ-positive splenic cells after phenylhydrazine injection. It counts as in vivo, mouse. Particulars: Abcg4−/− mice on chow diet, 3 days after injections. From the text: FIG. 6. (A) Representative of LacZ staining of BM sections of WT or Abcg4^−/− mice fed chow diet. Megakaryocytes are indicated by black arrows while LacZ-positive cells are indicated by white arrows Original magnification 20×. (B) Lac-Z staining of spleen of WT and Abcg4^−/− mice fed the chow diet and (C) from Abcg4^−/− BM Ldlr^−/− recipient mice fed WTD for 12 weeks. (D) Representative LacZ staining of spleen sections and quantification of LacZ-positive splenic cells of Abcg4^−/− mice fed the chow diet 3 days after either vehicle or phenylhydrazine injections. Error bars are S.D (n=5). * P<0.05.
Tissues and proximal aortas were serially paraffin sectioned and stained with H&E for morphological analysis as described^2. Aortic lesion size of each animal was calculated as the mean of lesion areas in 5 sections from the same mouse. Bone samples were decalcified with EDTA solution prior to cryosectioning. Von Willibrand Factor antibody (Dako, Catalog #A0082) was used to stain MKs. Lac-Z staining of frozen sections of mouse bone, spleen or proximal aorta was carried out using β-Galactosidase Staining Kit (Cell Signaling Technology, Danvers, Mass.).

Assay [4] has as its target T1, c-MPL (Mus musculus, UniProt Q08351).
T1 construct: increasing platelet counts in mice and other species; host or cells: mice (in vivo)
T1 sequence (Q08351 26-625): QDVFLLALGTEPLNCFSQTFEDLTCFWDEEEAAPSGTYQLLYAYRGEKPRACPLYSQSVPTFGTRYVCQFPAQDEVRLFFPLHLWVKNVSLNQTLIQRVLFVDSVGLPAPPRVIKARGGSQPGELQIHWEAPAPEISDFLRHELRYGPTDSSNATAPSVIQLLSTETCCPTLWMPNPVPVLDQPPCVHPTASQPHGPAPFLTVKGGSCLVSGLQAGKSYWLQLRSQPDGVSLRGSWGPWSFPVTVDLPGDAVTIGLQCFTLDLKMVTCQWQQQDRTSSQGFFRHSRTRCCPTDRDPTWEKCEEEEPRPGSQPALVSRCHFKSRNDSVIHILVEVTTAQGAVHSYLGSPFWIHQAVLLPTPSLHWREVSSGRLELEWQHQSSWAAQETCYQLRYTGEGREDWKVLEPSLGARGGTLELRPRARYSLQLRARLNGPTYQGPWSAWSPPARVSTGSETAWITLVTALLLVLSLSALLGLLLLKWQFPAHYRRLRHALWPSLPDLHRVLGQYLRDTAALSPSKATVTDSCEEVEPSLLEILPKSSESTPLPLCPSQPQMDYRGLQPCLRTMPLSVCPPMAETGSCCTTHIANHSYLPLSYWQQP
Particulars: mice and other species; Broudy & Lin 2004; cited from earlier work.

Assay [5] has as its system platelets. Briefly: Platelet count after a single dose of recombinant TPO in chow-fed mice. It counts as in vivo, mouse. Conditions: single dose TPO 50 μg/kg BW. Here is the method:
FIG. 2. (A) Abcg4 mRNA expression in various types of BM and peripheral white blood cells in WT mice determined by q-PCR. (n=5). (B) Quantification of BM cell populations and (C) cell surface c-MPL levels of Ldlr^−/− recipient mice fed WTD for 12 weeks (n=5). (D) MK-CFU assay using HPCs harvested by FACS from WT or Abcg4^−/− mice. (E) Platelet count in the WT and Abcg4^−/− mice (n=5) receiving a single dose of TPO (50 μg/kg BW) or the vehicle control. The representative of two studies with similar results is shown. (F) Bodipy-cholesterol efflux from WT or Abcg4^−/− MkPs to CD (2 mM) or rHDL (20 μg/ml) for 2 hours (n=4). (G) Bodipy-cholesterol levels in WT or Abcg4^−/− MkPs following CD/Bodipy-cholesterol loading (n=4). (H) EdU incorporation into and (I) cell surface c-MPL of WT or Abcg4^−/− MkPs were determined by flow cytometry (n=4). Error bars are S.E.M. *P<0.05 WT versus Abcg4^−/− groups and ^P<0.05 for treatment effect.
Mice and Treatments Abcg4^−/−, Abcg1 Abca1^−/−, and Abcg1^−/− mice were created as described (Wang, N. et al. 2006; Yvan-Charvet, L. et al. 2010) and used in this study. Abcg4^−/− mice have been backcrossed onto C57BL6/J mice for more than 10 generations. WT (C57BL/6J) and Ldlr^−/− (B6.12957-Ldlrtm1Her) were obtained from The Jackson Laboratory (Bar Harbor, Me.). […]
CBCs were quantified using whole blood collected from the tail bleeding. […]

Assay [6] deals with p-STAT-5 and p-ERK1/2. Briefly: p-STAT5 and p-ERK1/2 levels in MkPs with or without TPO. It counts as cell-based, mouse. Particulars: WT and Abcg4−/− MkPs; TPO 30 ng/ml for 10 minutes. Here is the method: FIG. 3. Shown are results all from WT, Abcg4^−/− or Lyn^−/− MkPs (n=4). (A) Quantification of tyrosine-phosphorylated c-CBL in response to TPO. (B) Tyrosine-phosphorylated c-CBL levels 5 min after TPO treatment and with or without pretreatment with CD (3 mM), CD-chol (3 mM CD) for 30 min or rHDL (20 μg apoA-I/ml) for 2 hours. (C) Tyrosine-phosphorylated c-CBL with or without 5 min TPO treatment or SU6656 pretreatment (10 μg/ml for 2 h). (D) Cell surface c-MPL with or without TPO or SU6656 treatment for 2 h. (E) Tyrosine-phosphorylated c-CBL (5 min in response to TPO). (F) cell surface c-MPL (2 h TPO treatment) with or without pretreatment with CD-chol (3 mM CD) for 30 min. (G) 16 h EdU incorporation in the presence of TPO and with or without CD (3 mM), CD-Chol (3 mM CD) pretreatment for 30 min or rHDL (20 μg/ml) for 16 h. (H) p-STAT-5 and p-ERK1/2 levels with or without TPO for 10 minutes. TPO was 30 ng/ml for all the assays shown. Error bars are S.E.M. *P<0.05 WT vs Abcg4^−/− TPO and ^P<0.05 for treatment effect.

Assay [7] concerns total BM cells from WT or Abcg4−/− mice. As to the kind of experiment: MK-CFU assay with total BM cells, with or without CD pretreatment. Conditions: CD 3 mM pretreatment for 30 minutes. In kind it is cell-based, mouse. Here is the method: FIG. 13. (A) Fluorescence confocal microscopy of WT or Abcg4^−/− MkPs treated with CD/Bodipy-cholesterol (0.03 mM CD) for 30 min and (B) confocal microscopy and quantification of fillipin stained WT or Abcg4^−/− MkPs. Gene expression was determined by q-PCR in (C) MEPs or (D) GMPs from the WT or Abcg4^−/− BM Ldlr^−/− recipient mice (n=5) fed WTD for 12 weeks. Error bars are S.D (n=10). *P<0.05. (E) MK-CFU assays using total BM cells from WT or Abcg4^−/− mice with or without pretreatment with CD (3 mM) for 30 minutes. Error bars are S.E.M. *P<0.05.
Primary BM HSPC cells obtained by FACS were plated in methylcellulose-based media (5000 cells/assay) containing TPO (50 ng/mL), IL-6 (20 ng/mL), and IL-3 (10 ng/mL) and incubated for 8 days according to manufacturer's protocol (Megacult-C, Stemcell Technologies). Cultures were fixed and the MK colonies visualized by staining for acethylcholinesterase activity. Nuclei were counterstained with Harris' hematoxylin. Colonies containing more than 3 megakaryocytes were scored as CFU-Mk.

Assay [8] concerns MkPs. As to the kind of experiment: MkP proliferation by EdU incorporation. It counts as cell-based, mouse. Particulars: in the presence of TPO. Here is the method: FIG. 3. Shown are results all from WT, Abcg4^-/- or Lyn^-/- MkPs (n=4). (A) Quantification of tyrosine-phosphorylated c-CBL in response to TPO. (B) Tyrosine-phosphorylated c-CBL levels 5 min after TPO treatment and with or without pretreatment with CD (3 mM), CD-chol (3 mM CD) for 30 min or rHDL (20 μg apoA-I/ml) for 2 hours. (C) Tyrosine-phosphorylated c-CBL with or without 5 min TPO treatment or SU6656 pretreatment (10 μg/ml for 2 h). (D) Cell surface c-MPL with or without TPO or SU6656 treatment for 2 h. (E) Tyrosine-phosphorylated c-CBL (5 min in response to TPO). (F) cell surface c-MPL (2 h TPO treatment) with or without pretreatment with CD-chol (3 mM CD) for 30 min. (G) 16 h EdU incorporation in the presence of TPO and with or without CD (3 mM), CD-Chol (3 mM CD) pretreatment for 30 min or rHDL (20 μg/ml) for 16 […]-5 and p-ERK1/2 levels with or without TPO for 10 minutes. TPO was 30 ng/ml for all the assays shown. Error bars are S.E.M. *P<0.05 WT vs Abcg4^-/- TPO and ^P<0.05 for treatment effect. Blood leukocytes and BM HSPCs were stained and analyzed or sorted as described (Murphy, A. J. et al. 2011). Briefly, BM cells from the mouse femurs and tibias were stained with a cocktail of antibodies to lineage committed cells (CD45R, CD19, CD11b, CD3e, TER-119, CD2, CD8, CD4, Ly-6C/G: All FITC, eBioscience), antibodies to Sca1 (Pacific Blue) and ckit (APC Cy7) to identify HSPC populations and LSK (lin-, Sac1+ and ckit+) cells, and antibodies to CD16/CD32 (FcγRII/III), CD34 to separate CMP (lin-, Sca1-, ckit+, CD34int, […] (lin-, Sca1-, ckit+, CD34int, […] (lin-, Sca1-, ckit+, CD34lo, FcγRII/IIIlo). For DNA content analysis (G2M phase), BM cells were fixed, and stained with DAPI (Invitrogen) prior to flow cytometry analysis. To determine in vivo cell proliferation, EdU (Invitrogen) was injected into mice via the tail vein 24 hours prior to being sacrificed. Cells were immunostained as described above in preparation for flow cytometry. Cells were then fixed and permeabilized using 0.01% saponin (w/v; Fluka) and 1% FCS (v/v) in IC fixation buffer (eBiosciences) for 30 minutes. Cells were then washed and stained with Alexa Fluor-conjugated azides using the Click-iT system (Invitrogen). Proliferation was quantified as percentage of EdU^+ cells by flow cytometry.

Where a SMILES comes first, the peptide text is derived from it. The star is where a group is joined. Cbz = O=C(OCc1ccccc1)*

In the case of `CC(C)C[C@@H](C=O)NC(=O)[C@H](CC(C)C)NC(=O)[C@H](CC(C)C)NC(=O)OCc1ccccc1` [MG132] (Cbz-Leu-Leu-Leu-aldehyde), the “cell surface c-MPL levels” value in assay [1] (WT MkPs) is “increased”.

For the compound `CN(C)S(=O)(=O)c1ccc2c(c1)/C(=C/c1cc3c([nH]1)CCCC3)C(=O)N2` [SU6656], the c-CBL tyrosine phosphorylation entry in assay [2] (WT and Abcg4−/− MkPs) is on record as “markedly decreased”. Besides, the “cell surface c-MPL levels” value in assay [1] (WT and Abcg4−/− MkPs) is “increased”.

As to `CCN(CC)CCO[C@H]1CC[C@@]2(C)C(=CC[C@@H]3[C@@H]2CC[C@]2(C)C(=O)CC[C@@H]32)C1` [U18666A], the c-CBL tyrosine phosphorylation entry in assay [2] (Abcg4−/− MkPs) is “reversed”. For the same compound, in assay [1] (Abcg4−/− MkPs), the “cell surface c-MPL levels” value is reported as “reversed”.

In the case of `NNc1ccccc1` [phenylhydrazine], the “LacZ positive cells in the spleen” value in assay [3] is on record as “marked expansion”.

Take Romiplostim: the platelet counts entry in assay [4] is given as “increasing”.

“TPO: Thrombopoietin, growth factor regulating megakaryocyte/platelet lineage development (R&D Systems)”: the increase in platelets in assay [5] (chow-fed Abcg4−/− mice) worked out at 2.1 fold. The increase in platelets in assay [5] (chow-fed WT mice) was 1.4 fold. In assay [6], the p-ERK1/2 levels entry was “increased” and the p-STAT5 levels result was “increased”.

On to cyclodextrin [CD], for which, in assay [7], the “increase in megakaryocyte colonies associated with ABCG4 deficiency” value is recorded as “reversed”. Besides, the c-CBL tyrosine phosphorylation entry in assay [2] (WT and Abcg4−/− MkPs) is reported as “increased”. For the same compound, the MkP proliferation entry in assay [8] (Lyn−/− MkPs) is listed as “completely unresponsive”; in assay [8] (WT MkPs), “decreased”; in assay [8] (WT and Abcg4−/− MkPs), “significantly reduced”. Also, in assay [1] (WT and Abcg4−/− MkPs), the “cell surface c-MPL levels” value is listed as “significantly reduced”.

Source of the values: patent publication US9687486B2, “Methods of treating atherosclerosis or myeloproliferative neoplasms by administering a lyn kinase activator” (THE TRUSTEES OF COLUMBIA UNIVERSITY IN THE CITY OF NEW YORK, priority 2012, dated 2017).
